Columns and labels:
[1] = tested on: mice with DC crush injury; experiment: Spinal cord water content (oedema) after DC crush injury in mice; type: in vivo, mouse; settings: IP, twice daily
[2] = tested on: mice with DC crush injury; experiment: BSCB integrity by albumin immunoreactivity; type: in vivo, mouse; settings: oral
Source text: (§1) After killing animals by exposure to rising concentrations of CO2, mice were intracardially perfused with 4% formaldehyde (TAAB Laboratories, Berkshire, UK) in 0.1M phosphate buffered saline (PBS). The lesion site+5 mm either side were dissected out, post-fixed in 4% formaldehyde and subjected to a graded series of sucrose solutions for cryoprotection. Spinal cords were blocked in OCT mounting compound (TAAB laboratories), sectioned longitudinally at 15 μm-thick using a cryostat (Brights Instruments, Huntingdon, UK) before being collected on charged glass slides (ThermoFisher Scientific, Loughborough, UK) and kept at −20° C. until required. Slides were numbered consecutively and sections from the middle of the lesion site were chosen for all immunohistochemical analyses, as described by previously (Surey S, Berry M, Logan A, Bicknell R, Ahmed Z. Differential cavitation, angiogenesis and wound-healing responses in injured mouse and rat spinal cords. Neuroscience 2014; 275: 62-80).
The integrity of the BSCB was assessed using albumin immunoreactivity in the spinal cord at 3 days after injury, as a surrogate marker of BSCB disruption. Sections were thawed at room temperature and washed in PBS before blocking endogenous […] in H2O2. […]

[3] = tested on: mice with DC crush injury; experiment: NF200+ spared fibres above and below the lesion; type: in vivo, mouse; settings: oral
[4] = tested on: mice with DC crush injury; experiment: CSF biomarkers of SCI (S100β, NSE, GFAP, pNF-H, NF-L); type: in vivo, mouse; settings: 3 d after injury
MMP-2 = biological target: T1, MMP-2 (Mus musculus, UniProt P33434); experiment: MMP-2 activity after DC injury and AZD1236 administration; type: in vivo; settings: oral and intrathecal, effective dose
T1 construct: from tissue
T1 sequence (P33434 110-662): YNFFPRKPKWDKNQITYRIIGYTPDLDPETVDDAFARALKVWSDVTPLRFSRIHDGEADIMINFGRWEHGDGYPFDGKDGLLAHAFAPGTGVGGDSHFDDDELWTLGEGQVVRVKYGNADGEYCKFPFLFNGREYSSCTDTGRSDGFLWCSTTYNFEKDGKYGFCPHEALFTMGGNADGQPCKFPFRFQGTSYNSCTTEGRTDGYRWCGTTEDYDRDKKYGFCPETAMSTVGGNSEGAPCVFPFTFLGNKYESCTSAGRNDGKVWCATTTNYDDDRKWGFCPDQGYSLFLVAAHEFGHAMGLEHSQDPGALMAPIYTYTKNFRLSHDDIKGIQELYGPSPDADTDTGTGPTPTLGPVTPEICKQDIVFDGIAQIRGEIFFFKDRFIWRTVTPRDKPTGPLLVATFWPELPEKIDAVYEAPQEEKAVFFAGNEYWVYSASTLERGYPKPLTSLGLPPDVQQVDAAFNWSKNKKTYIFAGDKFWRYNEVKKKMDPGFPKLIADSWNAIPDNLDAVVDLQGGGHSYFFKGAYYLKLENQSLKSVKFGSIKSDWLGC

[5] = tested on: mice with DC crush injury; experiment: Immunohistochemistry of scar tissue (laminin, Sema-3A, CS-56) at lesion site; type: in vivo, mouse; settings: for attenuation of laminin immunoreactivity (scar tissue): 4 weeks after DC injury
Source text: as §1
Fluorescent immunohistochemistry was performed as described previously (S. Surey, M. Berry, A. Logan, R. Bicknell, Z. Ahmed, Differential cavitation, angiogenesis and wound-healing responses in injured mouse and rat spinal cords. Neuroscience 275, 62-80 (2014)). […] Laminin was detected at 4 weeks after DC injury and treatment using a rabbit polyclonal anti-laminin primary antibody (ab11575; 1:400 dilution, Abcam). Macrophages were detected with a rabbit polyclonal anti-CD68 antibody (ab1525212; 1:500 dilution, Abcam); microglia were detected using a rabbit polyclonal antibody to CD11b (ab128797, 1:500 dilution, Abcam); GFAP was detected using a polyclonal anti-GFAP antibody (SAB5700611, 1:400 dilution, Sigma) were all detected at 10 days after DC injury and treatment. Semaphorin-3A (Sema-3A) and chondroitin sulphate proteoglycan (CSPG) was detected using monoclonal anti-CS-56 antibody (C8035; 1:200 dilution, Sigma) at 7 days after injury. […] CTB labelled axons in the mouse were detected using a goat polyclonal anti-CTB antibody (#703; 1:1000 dilution, List Biological Labs) at 6 weeks after DC injury.
All analyses were performed by investigators masked to the experimental groups. Relative fluorescent staining intensity was calculated by image analysis as described previously (Surey S, Berry M, Logan A, Bicknell R, Ahmed Z. Differential cavitation, angiogenesis and wound-healing responses in injured mouse and rat spinal cords. Neuroscience 2014; 275: 62-80). Briefly, photomicrographs taken at 5× magnification using the same standardized exposure settings throughout for each antibody were thresholded and the mean integrated intensity of pixels/unit area for each antibody was recorded Using ImageJ (NIH, USA) from n=12 mice/antibody.

[6] = tested on: other members of the enzyme family; experiment: Selectivity to other members of the enzyme family; type: biochemical, human; settings: relative to MMP-9 and MMP-12
[7] = immediate or delayed by 24 h, 7 days (8 days delayed group)

SMILES	SCI-induced oedema with tool inhibitors singly or in combination (FIG. 3D) [1]	suppression of area of BSCB breakdown (albumin immunoreactivity) ([2]; 24 h delayed treatment) [%]	suppression of area of BSCB breakdown (albumin immunoreactivity) ([2]; immediately after injury, 3 days, vs DC+vehicle) [%]	NF200+ spared fibres above (T9) and below (T7) the lesion site [3]	levels of S100β, NSE, GFAP, pNF-H and NF-L in CSF [4]	DC injury-induced rise in MMP-2 activity (MMP-2)	attenuation of laminin immunoreactivity (scar tissue) ([5]; 24 hour delayed) [%]	attenuation of CS-56 immunoreactivity at the lesion site [5, 7] [%]	attenuation of Sema-3A immunoreactivity at the lesion site [5, 7] [%]	attenuation of laminin immunoreactivity (scar tissue) ([5]; immediately after injury) [%]	selectivity to other members of the enzyme family [6] [fold]
CCN(CC)Cc1cc(C)c(N(Cc2ccccc2)S(=O)(=O)c2ccc(OC)cc2)c(C(=O)NO)c1 [MMP-9 Inhibitor I, reference compound]	suboptimal therapeutic benefits	–	–	–	–	–	–	–	–	–	–
C[C@]1(CS(=O)(=O)N2CC=C(C#Cc3cnc(C4CC4)nc3)CC2)NC(=O)NC1=O [AZD1236]	–	> 73	> 75	significantly preserved axon fibres	significantly attenuated all of these biomarkers to near sham-control levels	no difference	> 77	> 81	> 84	> 80	> 350
